One data set has as its target T1, human NHE-1 (Homo sapiens, UniProt P19634).
T1 construct: expressed in transfected cells; host or cells: LAP-1 cells (parental line has no endogenous NHE activity), G418 selection
Nature of the data set: FLIPR assay for NHE-1 inhibition by measurement of the recovery in pHi in transfected cell lines. The format is cell-based. The following applies: transfected LAP-1 cell line expressing human NHE-1, BCECF fluorescence, read-out: NHE1 inhibition IC50. How it is done: The NHE-1 inhibition was determined as follows:
FLIPR assay for determining NHE-1 inhibitors by measurement of the recovery in pHi in transfected cell lines which express human NHE-1
The assay is carried out in an FLIPR (fluorescent imaging plate reader) with black-walled 96-well microtiter plates with clear bases.
(The growth medium for the transfected cells (Iscove +10% fetal calf serum) additionally contains G418 as selection antibiotic in order to ensure the presence of the transfected sequences.)
The actual assay starts with the removal of the growth medium and addition of 100 μl of loading buffer per well (5 μM BCECF-AM [2′,7′-bis(carboxyethyl)-5-(and -6)-carboxyfluorescein, acetoxymethyl ester] in 20 mM NH4Cl, 115 mM choline chloride, 1 mM MgCl2, 1 mM CaCl2, 5 mM KCl, 20 mM HEPES, 5 mM glucose; pH 7.4 [adjusted with KOH]). The cells are then incubated at 37° C. for 20 minutes. This incubation leads to loading of the cells with the fluorescent dye whose fluorescence intensity depends on pHi, and with NH4Cl, which makes the cells slightly alkaline. [The nonfluorescent dye precursor BCECF-AM is, -as ester, membrane-permeable. The actual dye BCECF, which is not membrane-permeable, is liberated inside cells by esterases.] […]

A word on the melting point: it is the temperature, or range, at which the solid turns liquid. Usually IC50 stands for the concentration that gives 50% inhibition.

Structures are written as SMILES.

T1 sequence (P19634 whole entry): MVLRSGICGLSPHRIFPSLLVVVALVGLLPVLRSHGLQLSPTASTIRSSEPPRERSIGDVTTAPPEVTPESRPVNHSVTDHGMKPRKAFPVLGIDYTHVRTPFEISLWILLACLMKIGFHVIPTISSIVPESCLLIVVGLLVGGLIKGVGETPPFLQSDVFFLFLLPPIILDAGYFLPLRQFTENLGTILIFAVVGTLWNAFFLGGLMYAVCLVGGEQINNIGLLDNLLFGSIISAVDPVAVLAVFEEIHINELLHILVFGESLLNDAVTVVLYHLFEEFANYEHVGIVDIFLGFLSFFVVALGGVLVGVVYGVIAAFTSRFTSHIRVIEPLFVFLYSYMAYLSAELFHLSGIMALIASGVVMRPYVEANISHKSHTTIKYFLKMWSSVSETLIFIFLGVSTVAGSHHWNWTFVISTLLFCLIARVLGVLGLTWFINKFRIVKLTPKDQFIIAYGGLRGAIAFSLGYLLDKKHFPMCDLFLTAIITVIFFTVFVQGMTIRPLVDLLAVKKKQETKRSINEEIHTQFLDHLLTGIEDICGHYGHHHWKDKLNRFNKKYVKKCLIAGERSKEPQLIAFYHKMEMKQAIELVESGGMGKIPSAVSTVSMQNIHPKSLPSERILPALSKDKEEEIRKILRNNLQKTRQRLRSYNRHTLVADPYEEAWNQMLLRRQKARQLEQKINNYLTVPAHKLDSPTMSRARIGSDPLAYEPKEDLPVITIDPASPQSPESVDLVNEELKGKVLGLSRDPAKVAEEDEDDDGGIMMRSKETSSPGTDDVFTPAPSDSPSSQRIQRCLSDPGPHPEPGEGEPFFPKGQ

As for `[H]/N=C(\N)NC(=O)c1cc(S(C)(=O)=O)c(OC2CC(F)(F)C2)cc1C` [Example 1, N-[4-(3,3-Difluorocyclobutoxy)-5-methanesulfonyl-2-methylbenzoyl]guanidine], the melting point is 273 °C (dec.). Also, the IC50 on human NHE-1 came to 5.9 nM.

For the origin of these results see US6878748B2, “Fluorinated cycloalkyl-derivatized benzoylguanidines, process for their preparation, their uses as medicament, and medicament containing them” (Aventis Pharma Deutschland GmbH, priority 2002, dated 2005).
